Article PMC11873239, “A covalent chemical probe for Chikungunya nsP2 cysteine protease with antialphaviral activity and proteome-wide selectivity” (Scientific Reports, 2025)

Tests used:
CHIKV nsP2pro = CHIKV nsP2pro (Chikungunya virus, UniProt F2YI08); assay: biochemical
[1] = target: HEK293 cell lysate proteins (Homo sapiens, UniProt P42357); assay type: binding
[2] = target: HEK293 cell lysate proteins (Homo sapiens, UniProt A8K2U0); assay type: binding
[3] = target: HEK293 cell lysate proteins (Homo sapiens, UniProt Q01469); assay type: binding
[4] = target: HEK293 cell lysate proteins (Homo sapiens, UniProt P14923); assay type: binding
[5] = target: HEK293 cell lysate proteins (Homo sapiens, UniProt Q03164); assay type: binding
[6] = target: HEK293 cell lysate proteins (Homo sapiens, UniProt P06702); assay type: binding
[7] = target: HEK293 cell lysate proteins (Homo sapiens, UniProt Q13867); assay type: binding
[8] = target: HEK293 cell lysate proteins (Homo sapiens, UniProt P32119); assay type: binding
[9] = target: HEK293 cell lysate proteins (Homo sapiens, UniProt P04040); assay type: binding
[10] = target: HEK293 cell lysate proteins (Homo sapiens, UniProt Q96P63); assay type: binding
[11] = target: HEK293 cell lysate proteins (Homo sapiens, UniProt Q12872); assay type: binding
[12] = target: HEK293 cell lysate proteins (Homo sapiens, UniProt P05089); assay type: binding
[13] = target: HEK293 cell lysate proteins (Homo sapiens, UniProt Q9HCY8); assay type: binding
[14] = target: HEK293 cell lysate proteins (Homo sapiens, UniProt P26358); assay type: binding
[15] = target: HEK293 cell lysate proteins (Homo sapiens, UniProt Q15517); assay type: binding
[16] = target: HEK293 cell lysate proteins (Homo sapiens, UniProt P84103); assay type: binding
[17] = target: HEK293 cell lysate proteins (Homo sapiens, UniProt P05109); assay type: binding
[18] = target: HEK293 cell lysate proteins (Homo sapiens, UniProt Q14151); assay type: binding
[19] = target: HEK293 cell lysate proteins (Homo sapiens, UniProt P31944); assay type: binding
[20] = target: HEK293 cell lysate proteins (Homo sapiens, UniProt P22735); assay type: binding
[21] = target: HEK293 cell lysate proteins (Homo sapiens, UniProt Q86VP6); assay type: binding
[22] = target: HEK293 cell lysate proteins (Homo sapiens, UniProt P07339); assay type: binding
[23] = target: HEK293 cell lysate proteins (Homo sapiens, UniProt P22531); assay type: binding
[24] = target: HEK293 cell lysate proteins (Homo sapiens, UniProt Q8WVV4); assay type: binding
[25] = target: HEK293 cell lysate proteins (Homo sapiens, UniProt P15924); assay type: binding
[26] = target: HEK293 cell lysate proteins (Homo sapiens, UniProt P31151); assay type: binding
[27] = target: HEK293 cell lysate proteins (Homo sapiens, UniProt P31025); assay type: binding
[28] = target: HEK293 cell lysate proteins (Homo sapiens, UniProt Q15424); assay type: binding
[29] = target: HEK293 cell lysate proteins (Homo sapiens, UniProt P23490); assay type: binding
[30] = target: HEK293 cell lysate proteins (Homo sapiens, UniProt P27708); assay type: binding
[31] = target: HEK293 cell lysate proteins (Homo sapiens, UniProt Q13428); assay type: binding
[32] = target: HEK293 cell lysate proteins (Homo sapiens, UniProt P81605); assay type: binding
[33] = target: HEK293 cell lysate proteins (Homo sapiens, UniProt Q96QA5); assay type: binding

HEK293 cell lysate proteins (Homo sapiens, UniProt Q15517), sequence (Q15517 33-529): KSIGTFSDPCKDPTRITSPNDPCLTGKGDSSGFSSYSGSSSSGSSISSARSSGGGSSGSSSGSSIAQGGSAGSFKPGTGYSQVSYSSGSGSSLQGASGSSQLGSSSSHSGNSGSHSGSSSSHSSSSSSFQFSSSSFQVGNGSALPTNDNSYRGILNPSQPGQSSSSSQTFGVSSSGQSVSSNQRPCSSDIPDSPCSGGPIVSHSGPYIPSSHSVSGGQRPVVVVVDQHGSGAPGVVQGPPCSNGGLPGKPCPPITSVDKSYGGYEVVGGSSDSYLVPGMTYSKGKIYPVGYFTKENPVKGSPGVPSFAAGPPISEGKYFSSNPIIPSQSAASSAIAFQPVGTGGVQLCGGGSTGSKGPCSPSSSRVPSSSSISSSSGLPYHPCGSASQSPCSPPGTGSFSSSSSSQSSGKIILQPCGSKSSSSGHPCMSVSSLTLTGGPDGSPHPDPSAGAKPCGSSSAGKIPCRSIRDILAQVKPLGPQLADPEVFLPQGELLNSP
HEK293 cell lysate proteins (Homo sapiens, UniProt P42357), sequence (P42357 whole entry): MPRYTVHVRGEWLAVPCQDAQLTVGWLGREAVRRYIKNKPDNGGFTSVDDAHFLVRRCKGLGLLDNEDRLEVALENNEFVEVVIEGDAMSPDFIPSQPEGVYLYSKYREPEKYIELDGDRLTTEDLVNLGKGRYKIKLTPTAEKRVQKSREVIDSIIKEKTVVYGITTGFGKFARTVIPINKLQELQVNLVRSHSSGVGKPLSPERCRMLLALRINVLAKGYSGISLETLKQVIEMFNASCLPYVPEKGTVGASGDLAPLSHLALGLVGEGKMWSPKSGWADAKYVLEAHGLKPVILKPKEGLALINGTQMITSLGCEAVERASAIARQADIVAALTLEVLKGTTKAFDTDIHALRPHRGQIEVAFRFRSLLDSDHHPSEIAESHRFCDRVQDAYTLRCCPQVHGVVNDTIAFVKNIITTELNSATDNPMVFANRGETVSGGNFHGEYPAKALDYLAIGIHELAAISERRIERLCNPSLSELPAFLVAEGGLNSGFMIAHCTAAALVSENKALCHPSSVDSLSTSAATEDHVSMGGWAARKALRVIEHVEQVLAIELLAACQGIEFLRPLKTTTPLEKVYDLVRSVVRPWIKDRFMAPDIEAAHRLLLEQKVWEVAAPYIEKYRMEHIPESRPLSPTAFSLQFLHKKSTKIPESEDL
HEK293 cell lysate proteins (Homo sapiens, UniProt P31944), sequence (P31944 6-242): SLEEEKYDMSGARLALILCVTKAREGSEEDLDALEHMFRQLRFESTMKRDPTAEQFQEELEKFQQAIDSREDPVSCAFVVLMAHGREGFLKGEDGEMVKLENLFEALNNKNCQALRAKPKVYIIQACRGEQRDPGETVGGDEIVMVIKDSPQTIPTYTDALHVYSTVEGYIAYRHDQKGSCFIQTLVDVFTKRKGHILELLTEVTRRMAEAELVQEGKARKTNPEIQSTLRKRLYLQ
HEK293 cell lysate proteins (Homo sapiens, UniProt P26358), sequence (P26358 whole entry): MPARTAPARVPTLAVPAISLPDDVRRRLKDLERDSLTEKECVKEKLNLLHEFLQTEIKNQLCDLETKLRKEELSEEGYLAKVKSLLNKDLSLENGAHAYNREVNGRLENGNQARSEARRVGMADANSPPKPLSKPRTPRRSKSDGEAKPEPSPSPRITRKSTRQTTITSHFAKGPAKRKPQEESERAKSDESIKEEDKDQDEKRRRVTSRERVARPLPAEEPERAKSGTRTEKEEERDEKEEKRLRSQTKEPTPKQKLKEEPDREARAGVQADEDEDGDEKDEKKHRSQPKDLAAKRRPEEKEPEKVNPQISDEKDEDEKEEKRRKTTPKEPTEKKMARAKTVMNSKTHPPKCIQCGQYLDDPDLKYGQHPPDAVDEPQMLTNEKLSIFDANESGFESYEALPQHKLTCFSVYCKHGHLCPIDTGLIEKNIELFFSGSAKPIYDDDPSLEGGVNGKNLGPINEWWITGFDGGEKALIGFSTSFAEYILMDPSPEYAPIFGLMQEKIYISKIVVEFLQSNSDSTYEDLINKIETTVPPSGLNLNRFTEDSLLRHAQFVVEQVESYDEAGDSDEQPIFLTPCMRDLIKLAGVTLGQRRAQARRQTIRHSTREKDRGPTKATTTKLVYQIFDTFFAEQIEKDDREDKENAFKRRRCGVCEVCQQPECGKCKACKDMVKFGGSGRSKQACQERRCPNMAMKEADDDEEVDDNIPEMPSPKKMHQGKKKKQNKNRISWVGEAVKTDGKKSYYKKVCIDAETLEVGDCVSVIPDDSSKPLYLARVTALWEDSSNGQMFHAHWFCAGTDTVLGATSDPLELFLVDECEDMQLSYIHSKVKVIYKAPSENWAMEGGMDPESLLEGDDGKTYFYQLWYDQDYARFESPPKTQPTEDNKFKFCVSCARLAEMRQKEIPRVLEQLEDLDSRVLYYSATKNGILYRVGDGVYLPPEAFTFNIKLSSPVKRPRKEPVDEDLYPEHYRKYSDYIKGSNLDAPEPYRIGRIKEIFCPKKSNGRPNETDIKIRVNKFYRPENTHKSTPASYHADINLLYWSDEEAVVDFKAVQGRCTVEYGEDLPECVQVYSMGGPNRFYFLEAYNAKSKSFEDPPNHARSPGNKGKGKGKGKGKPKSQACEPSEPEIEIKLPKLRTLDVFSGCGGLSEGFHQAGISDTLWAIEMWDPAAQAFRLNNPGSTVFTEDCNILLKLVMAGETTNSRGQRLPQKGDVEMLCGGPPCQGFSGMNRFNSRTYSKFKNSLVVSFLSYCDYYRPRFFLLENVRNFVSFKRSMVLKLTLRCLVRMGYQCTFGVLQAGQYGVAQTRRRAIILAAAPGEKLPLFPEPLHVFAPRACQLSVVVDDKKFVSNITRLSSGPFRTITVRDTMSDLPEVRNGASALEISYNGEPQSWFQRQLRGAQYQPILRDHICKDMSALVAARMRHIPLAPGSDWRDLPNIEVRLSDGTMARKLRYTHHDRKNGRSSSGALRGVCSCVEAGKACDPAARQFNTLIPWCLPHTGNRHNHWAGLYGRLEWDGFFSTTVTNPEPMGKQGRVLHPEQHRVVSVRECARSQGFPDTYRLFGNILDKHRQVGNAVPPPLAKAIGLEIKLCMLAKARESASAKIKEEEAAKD
HEK293 cell lysate proteins (Homo sapiens, UniProt Q9HCY8), sequence (Q9HCY8 whole entry): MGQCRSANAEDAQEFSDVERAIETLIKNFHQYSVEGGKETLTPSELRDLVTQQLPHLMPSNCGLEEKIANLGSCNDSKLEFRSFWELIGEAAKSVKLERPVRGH
HEK293 cell lysate proteins (Homo sapiens, UniProt Q01469), sequence (Q01469 whole entry, looked up): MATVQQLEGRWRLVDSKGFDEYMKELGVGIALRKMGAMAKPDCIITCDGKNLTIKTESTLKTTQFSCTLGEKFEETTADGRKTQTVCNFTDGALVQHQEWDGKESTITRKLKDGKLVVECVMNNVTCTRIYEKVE
HEK293 cell lysate proteins (Homo sapiens, UniProt A8K2U0), sequence (A8K2U0 18-1454): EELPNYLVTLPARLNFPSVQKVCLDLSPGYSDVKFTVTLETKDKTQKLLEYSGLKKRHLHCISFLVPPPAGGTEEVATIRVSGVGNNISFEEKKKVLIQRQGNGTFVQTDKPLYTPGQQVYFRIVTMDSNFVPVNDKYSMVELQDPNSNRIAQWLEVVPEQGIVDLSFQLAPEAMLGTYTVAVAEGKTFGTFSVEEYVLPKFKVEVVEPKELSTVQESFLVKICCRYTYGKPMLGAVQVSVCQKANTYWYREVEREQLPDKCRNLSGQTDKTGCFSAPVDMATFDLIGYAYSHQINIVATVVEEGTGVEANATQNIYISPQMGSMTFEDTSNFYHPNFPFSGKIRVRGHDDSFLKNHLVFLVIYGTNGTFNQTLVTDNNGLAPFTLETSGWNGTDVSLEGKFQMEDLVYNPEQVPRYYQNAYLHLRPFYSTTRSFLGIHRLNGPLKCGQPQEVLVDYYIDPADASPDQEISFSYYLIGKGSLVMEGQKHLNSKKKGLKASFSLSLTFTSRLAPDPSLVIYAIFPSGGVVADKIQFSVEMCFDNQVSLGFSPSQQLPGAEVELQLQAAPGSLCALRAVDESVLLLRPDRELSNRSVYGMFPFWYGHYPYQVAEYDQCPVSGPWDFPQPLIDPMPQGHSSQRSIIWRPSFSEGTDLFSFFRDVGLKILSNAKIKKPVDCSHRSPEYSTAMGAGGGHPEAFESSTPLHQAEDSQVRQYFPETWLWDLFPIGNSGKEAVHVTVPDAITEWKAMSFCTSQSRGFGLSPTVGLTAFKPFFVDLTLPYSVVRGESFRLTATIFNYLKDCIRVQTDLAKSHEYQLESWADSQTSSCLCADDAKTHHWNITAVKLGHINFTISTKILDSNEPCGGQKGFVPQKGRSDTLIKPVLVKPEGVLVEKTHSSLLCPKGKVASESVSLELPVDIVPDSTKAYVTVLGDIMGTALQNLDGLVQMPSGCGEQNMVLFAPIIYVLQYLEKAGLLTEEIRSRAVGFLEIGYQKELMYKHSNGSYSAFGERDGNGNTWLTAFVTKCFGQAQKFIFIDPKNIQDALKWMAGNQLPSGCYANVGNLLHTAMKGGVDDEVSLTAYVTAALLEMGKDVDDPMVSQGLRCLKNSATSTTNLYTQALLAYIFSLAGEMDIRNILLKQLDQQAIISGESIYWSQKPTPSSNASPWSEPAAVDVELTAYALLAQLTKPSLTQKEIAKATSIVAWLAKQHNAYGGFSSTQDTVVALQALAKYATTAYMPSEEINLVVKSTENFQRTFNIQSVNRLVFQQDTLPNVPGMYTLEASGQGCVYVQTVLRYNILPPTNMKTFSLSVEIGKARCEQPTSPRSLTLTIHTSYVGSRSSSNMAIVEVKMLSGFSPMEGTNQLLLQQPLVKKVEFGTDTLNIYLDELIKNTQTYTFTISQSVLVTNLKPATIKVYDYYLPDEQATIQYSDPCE
HEK293 cell lysate proteins (Homo sapiens, UniProt P05089), sequence (P05089 whole entry): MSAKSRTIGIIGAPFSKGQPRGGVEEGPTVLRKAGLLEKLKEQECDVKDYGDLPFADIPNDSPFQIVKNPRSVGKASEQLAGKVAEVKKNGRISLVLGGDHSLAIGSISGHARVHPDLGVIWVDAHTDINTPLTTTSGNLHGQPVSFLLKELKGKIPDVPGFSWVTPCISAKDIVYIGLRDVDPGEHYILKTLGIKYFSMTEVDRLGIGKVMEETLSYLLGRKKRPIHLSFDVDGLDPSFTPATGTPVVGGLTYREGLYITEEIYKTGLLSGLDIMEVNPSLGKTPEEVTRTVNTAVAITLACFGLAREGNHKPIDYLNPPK

C#CCOc1ccccc1-c1cc(C(=O)NC/C=C/S(C)(=O)=O)on1 [VS, (E)-N-(3-(methylsulfonyl)allyl)−3-(2-(prop-2-yn-1-yloxy)phenyl)isoxazole-5-carboxamide]
IC50 (CHIKV nsP2pro): 65 nM
Log2 fold change [1]: 1.12
Log2 fold change [2]: 1.10
Log2 fold change [3]: 2.38
Log2 fold change [4]: 1.97
Log2 fold change [5]: -1.44
Log2 fold change [6]: 1.63
Log2 fold change [7]: 1.56
Log2 fold change [8]: 2.04
Log2 fold change [9]: 1.41
Log2 fold change [10]: 1.71
Log2 fold change [11]: -1.75
Log2 fold change [12]: 1.79
Log2 fold change [13]: 1.98
Log2 fold change [14]: 1.64
Log2 fold change [15]: 1.22
Log2 fold change [16]: 1.43
Log2 fold change [17]: 1.58
Log2 fold change [18]: 1.50
Log2 fold change [19]: 1.29
Log2 fold change [20]: 1.60
Log2 fold change [21]: -1.19
Log2 fold change [22]: 1.67
Log2 fold change [23]: 2.37
Log2 fold change [24]: 5.21
Log2 fold change [25]: 2.05
Log2 fold change [26]: -1.22
Log2 fold change [27]: 1.54
Log2 fold change [28]: 1.46
Log2 fold change [29]: 2.79
Log2 fold change [30]: 3.73
Log2 fold change [31]: 1.02
Log2 fold change [32]: 1.36
Log2 fold change [33]: 1.51
